Biological target: T1, human Glucose-dependent Insulinotropic Polypeptide Receptor (hGIPR) (Homo sapiens, UniProt P48546)
T1 sequence (P48546 22-466): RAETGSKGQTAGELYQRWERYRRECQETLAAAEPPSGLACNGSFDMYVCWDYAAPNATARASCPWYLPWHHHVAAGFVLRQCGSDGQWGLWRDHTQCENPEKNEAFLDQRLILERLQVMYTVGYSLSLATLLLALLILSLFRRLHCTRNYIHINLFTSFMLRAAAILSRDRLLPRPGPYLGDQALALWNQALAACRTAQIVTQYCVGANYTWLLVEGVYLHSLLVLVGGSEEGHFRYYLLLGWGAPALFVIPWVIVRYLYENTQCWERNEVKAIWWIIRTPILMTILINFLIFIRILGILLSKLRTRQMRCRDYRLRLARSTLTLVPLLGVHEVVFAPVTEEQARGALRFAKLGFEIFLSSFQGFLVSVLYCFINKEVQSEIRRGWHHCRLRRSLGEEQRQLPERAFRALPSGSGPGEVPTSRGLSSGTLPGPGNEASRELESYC
Assay: Functional in vitro GIPR antagonist potency assay (cAMP HTRF, CHO-K1 cells stably expressing hGIPR, hGIP stimulation at about EC80)
Format: cell-based
Conditions: geometric mean, hGIP at estimated EC80, examples marked ^2: overall geometric mean of multiple forms (including salts) tested
In short: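 CHO-K1 cells expressing hGIPR (2,000 per well) in HBSS/HEPES/0.1% BSA with 200 μM IBMX were preincubated 2 h at 37 °C with an 11-point compound series (0.5% DMSO). hGIP at about EC80 was then added for 30 min, and cAMP was read by HTRF (665/620 nm). Data were normalized between hGIP alone and full antagonism by a reference antagonist at 80 μM.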

SMILES | IC50 [nM]
Cc1c(C(=O)O)ccc(-c2ccc(NC(=O)[C@H]3CCCN3C(=O)Nc3ccc(C(C)C)cc3)cc2)c1F [Example 87, 2-fluoro-3-methyl-4′-[(1-{[4-(propan-2-yl)phenyl]carbamoyl}-D-prolyl)amino][1,1′-biphenyl]-4-carboxylic acid] | 11
CCc1cc(-c2ccc(NC(=O)[C@H]3CCCN3C(=O)Nc3ccc(C(C)C)cc3)cc2)ccc1C(=O)O [Example 95, 3-ethyl-4′-[(1-{[4-(propan-2-yl)phenyl]carbamoyl}-D-prolyl)amino][1,1′-biphenyl]-4-carboxylic acid] | 13
Cc1cc(NC(=O)N2CCC[C@@H]2C(=O)Nc2ccc(-c3ccc(C(=O)O)cc3)cn2)ccc1C(F)(F)F [Example 177, 4-{6-[(1-{[3-methyl-4-(trifluoromethyl)phenyl]carbamoyl}-D-prolyl)amino]pyridin-3-yl}benzoic acid] | 8.2
Cc1cc(C2CC2)ccc1NC(=O)N1CCC[C@@H]1C(=O)Nc1ccc(-c2ccc(C(=O)O)cc2)cc1 [Example 142, 4′-({1-[(4-cyclopropyl-2-methylphenyl)carbamoyl]-D-prolyl}amino)[1,1′-biphenyl]-4-carboxylic acid] | 130
O=C(O)c1ccc(-c2ccc(NC(=O)[C@H]3CCCN3C(=O)Nc3ccc(Cl)c(Cl)c3)cc2)cc1 [Example 73, 4′-({1-[(3,4-dichlorophenyl)carbamoyl]-D-prolyl}amino)[1,1′-biphenyl]-4-carboxylic acid] | 12
CC(C)c1ccc(NC(=O)N2CCC[C@@H]2C(=O)Nc2ccc(-c3ccc(O)c(Cl)c3)cc2)cc1 [Example 96, (2R)-N^2-(3′-chloro-4′-hydroxy[1,1′-biphenyl]-4-yl)-N^1-[4-(propan-2-yl)phenyl]pyrrolidine-1,2-dicarboxamide] | 180
O=C(O)c1ccc(-c2ccc(NC(=O)[C@H]3CCCN3C(=O)Nc3cc(Cl)cc(Cl)c3)cc2)cc1 [Example 59, 4′-({1-[(3,5-dichlorophenyl)carbamoyl]-D-prolyl}amino)[1,1′-biphenyl]-4-carboxylic acid] | 35
COc1cc(C(=O)O)ccc1-c1ccc(NC(=O)[C@H]2CCCN2C(=O)Nc2ccc(C(C)C)cc2)cc1 [Example 29, 2-Methoxy-4′-[(1-{[4-(propan-2-yl)phenyl]carbamoyl}-D-prolyl)amino][1,1′-biphenyl]-4-carboxylic acid] | 17
CC(C)(C)c1ccc(NC(=O)N2CCC[C@@H]2C(=O)Nc2ccc(-c3ccc(C(=O)O)cc3)cc2)cc1 [Example 119, 4′-({1-[(4-tert-butylphenyl)carbamoyl]-D-prolyl}amino)[1,1′-biphenyl]-4-carboxylic acid] | 24

The remaining compounds from weak to strong by IC50, led by results:

IC50 [nM] | SMILES
145 | CC(C)c1ccc(NC(=O)N2CCC[C@@H]2C(=O)Nc2ccc(-c3cccc(C(=O)O)c3)nc2)cc1 [Example 78, 3-{5-[(1-{[4-(propan-2-yl)phenyl]carbamoyl}-D-prolyl)amino]pyridin-2-yl}benzoic acid]
86 | CC(C)c1ccc(NC(=O)N2CCC[C@@H]2C(=O)Nc2ncc(-c3ccc(C(=O)O)cc3)cc2F)cc1 [Example 25, 4-{5-Fluoro-6-[(1-{[4-(propan-2-yl)phenyl]carbamoyl}-D-prolyl)amino]pyridin-3-yl}benzoic acid]
9.1 | CC(C)c1ccc(NC(=O)N2CCC[C@@H]2C(=O)Nc2ccc(-c3ccc(C(=O)O)cc3)cn2)cc1 [Example 5, Ammonium 4-{6-[(1-{[4-(propan-2-yl)phenyl]carbamoyl}-D-prolyl)amino]pyridin-3-yl}benzoate]
7.4 | Cc1cc(-c2ccc(NC(=O)[C@H]3CCCN3C(=O)Nc3ccc(C(F)(F)F)cc3)cc2)ccc1C(=O)O [Example 209, 3-methyl-4′-[(1-{[4-(trifluoromethyl)phenyl]carbamoyl}-D-prolyl)amino][1,1′-biphenyl]-4-carboxylic acid]
6.3 | CC(C)c1ccc(NC(=O)N2CCC[C@@H]2C(=O)Nc2ccc(-c3ccc(C(=O)O)cc3F)cc2)cc1 [Example 56, 2-fluoro-4′-[(1-{[4-(propan-2-yl)phenyl]carbamoyl}-D-prolyl)amino][1,1′-biphenyl]-4-carboxylic acid]
